Assays:
Test in all cases: cells
COLO-741 = assay type: functional, cell-based, Homo sapiens; settings: Homo sapiens, COLO-741
Description: SANGER: Inhibition of human COLO-741 cell growth in a cell viability assay.

COLO-829 = assay type: functional, cell-based, Homo sapiens; settings: Homo sapiens, COLO-829
Description: SANGER: Inhibition of human COLO-829 cell growth in a cell viability assay.

Calu-3 = assay type: functional, cell-based, Homo sapiens; settings: Homo sapiens, Calu-3;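 also: growth inhibition of human Calu-3 cells, determined with a cell viability assay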
Description: SANGER: Inhibition of human Calu-3 cell growth in a cell viability assay.

EKVX = assay type: functional, cell-based, Homo sapiens; settings: Homo sapiens, EKVX;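 also: growth inhibition of human EKVX cells, read out with a cell viability assay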
Description: SANGER: Inhibition of human EKVX cell growth in a cell viability assay.

ES8 = assay type: functional, cell-based, Homo sapiens; settings: Homo sapiens, ES8;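 also: growth inhibition of human ES8 cells, read out with a cell viability assay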
Description: SANGER: Inhibition of human ES8 cell growth in a cell viability assay.

EW-16 = assay type: functional, cell-based, Homo sapiens; settings: Homo sapiens, EW-16;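 also: growth inhibition of human EW-16 cells, read out as cell viability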
Description: SANGER: Inhibition of human EW-16 cell growth in a cell viability assay.

GAK = assay type: functional, cell-based, Homo sapiens; settings: Homo sapiens, GAK;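 also: cell growth inhibition read out by a cell viability assay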
Description: SANGER: Inhibition of human GAK cell growth in a cell viability assay.

GI-ME-N = assay type: functional, cell-based, Homo sapiens; settings: Homo sapiens, GI-ME-N;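 also: growth inhibition of human GI-ME-N cells, read out with a cell viability assay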
Description: SANGER: Inhibition of human GI-ME-N cell growth in a cell viability assay.

GMS-10 = assay type: functional, cell-based, Homo sapiens; settings: Homo sapiens, GMS-10;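 also: growth inhibition of GMS-10 cells, read out as cell viability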
Description: SANGER: Inhibition of human GMS-10 cell growth in a cell viability assay.

HCC2218 = assay type: functional, cell-based; settings: Homo sapiens;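 also: cell viability assay read-out, with IC50 given as the concentration that inhibits growth of the cell line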
Description: SANGER: Inhibition of human HCC2218 cell growth in a cell viability assay.

HCC38 = assay type: functional, cell-based, Homo sapiens; settings: Homo sapiens, HCC38;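 also: cell viability assay on the human HCC38 cell line, with IC50 marking the concentration that inhibits cell growth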
Description: SANGER: Inhibition of human HCC38 cell growth in a cell viability assay.

HCE-T = assay type: functional, cell-based, Homo sapiens; settings: Homo sapiens, HCE-T;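 also: cell viability assay read-out, reporting inhibition of HCE-T cell growth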
Description: SANGER: Inhibition of human HCE-T cell growth in a cell viability assay.

HD-MY-Z = assay type: functional, cell-based, Homo sapiens; settings: Homo sapiens, HD-MY-Z;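 also: growth inhibition of HD-MY-Z cells, read out with a cell viability assay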
Description: SANGER: Inhibition of human HD-MY-Z cell growth in a cell viability assay.

HOP-62 = assay type: functional, cell-based, Homo sapiens; settings: Homo sapiens, HOP-62;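 also: cell growth inhibition determined with a viability assay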
Description: SANGER: Inhibition of human HOP-62 cell growth in a cell viability assay.

HuP-T3 = assay type: functional, cell-based, Homo sapiens; settings: Homo sapiens, HuP-T3;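 also: HuP-T3 cell growth inhibition, read out with a cell viability assay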
Description: SANGER: Inhibition of human HuP-T3 cell growth in a cell viability assay.

IST-MES1 = assay type: functional, cell-based, Homo sapiens; settings: Homo sapiens, IST-MES1;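 also: growth inhibition of IST-MES1 cells, measured with a cell viability assay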
Description: SANGER: Inhibition of human IST-MES1 cell growth in a cell viability assay.

KARPAS-299 = assay type: functional, cell-based; settings: Homo sapiens
Description: SANGER: Inhibition of human KARPAS-299 cell growth in a cell viability assay.

KP-N-YN = assay type: functional, cell-based; settings: Homo sapiens;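 also: growth inhibition of KP-N-YN cells, read out with a cell viability assay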
Description: SANGER: Inhibition of human KP-N-YN cell growth in a cell viability assay.

KURAMOCHI = assay type: functional, cell-based; settings: Homo sapiens;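 also: growth inhibition of KURAMOCHI cells, read out with a cell viability assay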
Description: SANGER: Inhibition of human KURAMOCHI cell growth in a cell viability assay.

L-363 = assay type: functional, cell-based; settings: Homo sapiens
Description: SANGER: Inhibition of human L-363 cell growth in a cell viability assay.

LB1047-RCC = assay type: functional, cell-based, Homo sapiens; settings: Homo sapiens, LB1047-RCC;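 also: inhibition of cell growth, determined with a cell viability assay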
Description: SANGER: Inhibition of human LB1047-RCC cell growth in a cell viability assay.

LK-2 = assay type: functional, cell-based, Homo sapiens; settings: Homo sapiens, LK-2;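 also: growth inhibition of LK-2 cells, read out with a viability assay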
Description: SANGER: Inhibition of human LK-2 cell growth in a cell viability assay.

MZ7-mel = assay type: functional, cell-based, Homo sapiens; settings: Homo sapiens, MZ7-mel;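 also: growth inhibition of human MZ7-mel cells, measured by a cell viability assay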
Description: SANGER: Inhibition of human MZ7-mel cell growth in a cell viability assay.

NB14 = assay type: functional, cell-based; settings: Homo sapiens;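 also: growth inhibition of NB14 cells measured with a cell viability assay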
Description: SANGER: Inhibition of human NB14 cell growth in a cell viability assay.

NB6 = assay type: functional, cell-based, Homo sapiens; settings: Homo sapiens, NB6;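 also: growth inhibition of NB6 cells, read out by a cell viability assay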
Description: SANGER: Inhibition of human NB6 cell growth in a cell viability assay.

NCI-H2052 = assay type: functional, cell-based, Homo sapiens; settings: Homo sapiens, NCI-H2052;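 also: growth inhibition of NCI-H2052 cells, read out with a cell viability assay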
Description: SANGER: Inhibition of human NCI-H2052 cell growth in a cell viability assay.

NCI-H28 = assay type: functional, cell-based, Homo sapiens; settings: Homo sapiens, NCI-H28;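 also: growth inhibition of human NCI-H28 cells, read out as cell viability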
Description: SANGER: Inhibition of human NCI-H28 cell growth in a cell viability assay.

NCI-N87 = assay type: functional, cell-based, Homo sapiens; settings: Homo sapiens, NCI-N87;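 also: growth inhibition of human NCI-N87 cells, read out with a cell viability assay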
Description: SANGER: Inhibition of human NCI-N87 cell growth in a cell viability assay.

NOMO-1 = assay type: functional, cell-based; settings: Homo sapiens;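 also: growth inhibition of human NOMO-1 cells measured by a cell viability assay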
Description: SANGER: Inhibition of human NOMO-1 cell growth in a cell viability assay.

OCI-AML2 = assay type: functional, cell-based; settings: Homo sapiens;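 also: growth inhibition of OCI-AML2 cells, read out with a cell viability assay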
Description: SANGER: Inhibition of human OCI-AML2 cell growth in a cell viability assay.

OVCAR-5 = assay type: functional, cell-based, Homo sapiens; settings: Homo sapiens, OVCAR-5;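 also: growth inhibition of human OVCAR-5 cells, read out with a cell viability assay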
Description: SANGER: Inhibition of human OVCAR-5 cell growth in a cell viability assay.

PC-3 = assay type: functional, cell-based, Homo sapiens; settings: Homo sapiens, PC-3;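 also: cell viability assay measuring growth inhibition of PC-3 cells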
Description: SANGER: Inhibition of human PC-3 cell growth in a cell viability assay.

RD = assay type: functional, cell-based, Homo sapiens; settings: Homo sapiens, RD
Description: SANGER: Inhibition of human RD cell growth in a cell viability assay.

RPMI-8226 = assay type: functional, cell-based; settings: Homo sapiens
Description: SANGER: Inhibition of human RPMI-8226 cell growth in a cell viability assay.

RXF 393 = assay type: functional, cell-based; settings: Homo sapiens;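 also: growth inhibition of human RXF 393 cells, read out with a cell viability assay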
Description: SANGER: Inhibition of human RXF393 cell growth in a cell viability assay.

SBC-1 = assay type: functional, cell-based; settings: Homo sapiens;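 also: cell viability assay measuring growth inhibition of the SBC-1 cell line, IC50 being the concentration that halves growth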
Description: SANGER: Inhibition of human SBC-1 cell growth in a cell viability assay.

SF-295 = assay type: functional, cell-based, Homo sapiens; settings: Homo sapiens, SF-295; read-out: IC50;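 also: growth inhibition of SF-295 cells, read out with a cell viability assay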
Description: SANGER: Inhibition of human SF295 cell growth in a cell viability assay.

SK-MEL-2 = assay type: functional, cell-based, Homo sapiens; settings: Homo sapiens, SK-MEL-2;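 also: growth inhibition of human SK-MEL-2 cells measured with a cell viability assay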
Description: SANGER: Inhibition of human SK-MEL-2 cell growth in a cell viability assay.

SKG-IIIa = assay type: functional, cell-based, Homo sapiens; settings: Homo sapiens, SKG-IIIa;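 also: cell growth inhibition, read out with a cell viability assay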
Description: SANGER: Inhibition of human SKG-IIIa cell growth in a cell viability assay.

SW837 = assay type: functional, cell-based, Homo sapiens; settings: Homo sapiens, SW837;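 also: growth inhibition of SW837 cells, determined with a cell viability assay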
Description: SANGER: Inhibition of human SW837 cell growth in a cell viability assay.

769-P = assay type: functional, cell-based, Homo sapiens; settings: Homo sapiens, 769-P
Description: SANGER: Inhibition of human 769-P cell growth in a cell viability assay.

786-0 = assay type: functional, cell-based, Homo sapiens; settings: Homo sapiens
Description: SANGER: Inhibition of human 786-0 cell growth in a cell viability assay.

8305C = assay type: functional, cell-based, Homo sapiens; settings: Homo sapiens, 8305C
Description: SANGER: Inhibition of human 8305C cell growth in a cell viability assay.

A2780 = assay type: functional, cell-based, Homo sapiens; settings: Homo sapiens, A2780;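 also: growth inhibition of A2780 cells, read out with a cell viability assay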
Description: SANGER: Inhibition of human A2780 cell growth in a cell viability assay.

BB30-HNC = assay type: functional, cell-based, Homo sapiens; settings: Homo sapiens, BB30-HNC;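 also: growth inhibition of the cultured cell line, read out by a cell viability assay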
Description: SANGER: Inhibition of human BB30-HNC cell growth in a cell viability assay.

BHT-101 = assay type: functional, cell-based, Homo sapiens; settings: Homo sapiens, BHT-101
Description: SANGER: Inhibition of human BHT-101 cell growth in a cell viability assay.

Becker = assay type: functional, cell-based, Homo sapiens; settings: Homo sapiens, Becker;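 also: growth inhibition of Becker cells, read out with a cell viability assay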
Description: SANGER: Inhibition of human Becker cell growth in a cell viability assay.

C-33-A = assay type: functional, cell-based, Homo sapiens; settings: Homo sapiens, C-33-A;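 also: cell viability assay measuring growth inhibition of C-33-A cells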
Description: SANGER: Inhibition of human C-33-A cell growth in a cell viability assay.

CAL-27 = assay type: functional, cell-based, Homo sapiens; settings: Homo sapiens, CAL-27;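 also: Viability-based readout, IC50 reflecting inhibition of CAL-27 cell growth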
Description: SANGER: Inhibition of human CAL-27 cell growth in a cell viability assay.

TE-10 = assay type: functional, cell-based, Homo sapiens; settings: Homo sapiens, TE-10;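 also: growth inhibition of TE-10 cells, measured by a cell viability assay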
Description: SANGER: Inhibition of human TE-10 cell growth in a cell viability assay.

TE-9 = assay type: functional, cell-based, Homo sapiens; settings: Homo sapiens, TE-9;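 also: cell growth inhibition, measured with a cell viability readout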
Description: SANGER: Inhibition of human TE-9 cell growth in a cell viability assay.

UMUC3 = assay type: functional, cell-based, Homo sapiens; settings: Homo sapiens, UMUC3;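 also: growth inhibition of human UM-UC-3 cells, read out with a cell viability assay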
Description: SANGER: Inhibition of human UM-UC-3 cell growth in a cell viability assay.

With `CC(=O)O[C@@H]1[C@@H](OC(C)=O)[C@@H](O)[C@H](Oc2c(-c3ccc(O)cc3)oc3cc(O)cc(O)c3c2=O)O[C@H]1C` the IC50 (COLO-741) was > 10 µM, the IC50 (COLO-829) was > 10 µM and the IC50 (Calu-3) was > 10 µM. For the same compound, the IC50 (EKVX) was > 10 µM, the IC50 (ES8) was > 10 µM and the IC50 (EW-16) was > 10 µM. The IC50 (GAK) was > 10 µM, the IC50 (GI-ME-N) was > 10 µM and the IC50 (GMS-10) was > 10 µM. For the same compound, the IC50 (HCC2218) was 3.84 µM, the IC50 (HCC38) was > 10 µM and the IC50 (HCE-T) was > 10 µM. The IC50 (HD-MY-Z) was > 10 µM, the IC50 (HOP-62) was > 10 µM and the IC50 (HuP-T3) was > 10 µM. For the same compound, the IC50 (IST-MES1) was > 10 µM, the IC50 (KARPAS-299) was > 10 µM and the IC50 (KP-N-YN) was > 10 µM. For the same compound, the IC50 (KURAMOCHI) was > 10 µM, the IC50 (L-363) was > 10 µM and the IC50 (LB1047-RCC) was > 10 µM. The IC50 (LK-2) was > 10 µM, the IC50 (MZ7-mel) was > 10 µM and the IC50 (NB14) was > 10 µM. For the same compound, the IC50 (NB6) was > 10 µM, the IC50 (NCI-H2052) was > 10 µM and the IC50 (NCI-H28) was > 10 µM. The IC50 (NCI-N87) was > 10 µM, the IC50 (NOMO-1) was > 10 µM and the IC50 (OCI-AML2) was > 10 µM. For the same compound, the IC50 (OVCAR-5) was > 10 µM, the IC50 (PC-3) was > 10 µM and the IC50 (RD) was > 10 µM. The IC50 (RPMI-8226) was > 10 µM, the IC50 (RXF 393) was > 10 µM and the IC50 (SBC-1) was > 10 µM. For the same compound, the IC50 (SF-295) was > 10 µM, the IC50 (SK-MEL-2) was > 10 µM and the IC50 (SKG-IIIa) was > 10 µM. For the same compound, the IC50 (SW837) was > 10 µM, the IC50 (769-P) was > 10 µM and the IC50 (786-0) was > 10 µM. The IC50 (8305C) was > 10 µM, the IC50 (A2780) was > 10 µM and the IC50 (BB30-HNC) was > 10 µM. The IC50 (BHT-101) was > 10 µM, the IC50 (Becker) was > 10 µM and the IC50 (C-33-A) was > 10 µM. The IC50 (CAL-27) was > 10 µM, the IC50 (TE-10) was > 10 µM and the IC50 (TE-9) was > 10 µM. The IC50 (UMUC3) was > 10 µM.
